Experimental findings from US20230167127A1, “COMPOUNDS AND THEIR USE IN THE TREATMENT OF BACTERIAL INFECTION” (Hoffmann-La Roche Inc., priority 2020, published 2023) are described below.

The structures appear in SMILES notation. Counter-ions that a name gives are not always drawn. Where only a bound is given, the exact number is not on record here.

The assay relates to Escherichia coli ATCC 25922. In words: 50% growth inhibitory concentration (IC50) determination, Iso-Sensitest broth dilution. As to conditions: Escherichia coli, ATCC25922, 16 h, strain Escherichia coli ATCC 25922; 10-point broth dilution, optical density at 600 nm over 16 h; read-out: Escherichia coli growth inhibition IC50. Format: cell-based. The essentials: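 Growth was tracked as optical density at 600 nm every 20 minutes for 16 h at 35±2° C. Compounds from DMSO stocks were serially diluted twofold over 10 points (e.g. 50–0.097 μM final) in Iso-Sensitest broth. Inhibition computed in log-phase growth to give IC50.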
For orientation: Dilution methods test growth across graded concentrations, often in twofold steps.

Consider `Cc1ncc(F)c2c1CC(CCN1CC3(C1)CN(c1cnc4c(n1)NC(=O)CO4)C(=O)O3)C2` (stereo not shown) [Example 326, 6-[2-[2-(4-fluoro-1-methyl-6,7-dihydro-5H-cyclopenta[c]pyridin-6-yl)ethyl]-6-oxo-5-oxa-2,7-diazaspiro[3.4]octan-7-yl]-4H-pyrazino[2,3-b][1,4]oxazin-3-one], for which the 50% inhibitory concentration (IC50) was 0.138 µM.

Take `NC1c2cccc(F)c2CC1CNCCC1CN(c2cnc3c(n2)NC(=O)CO3)C(=O)O1` (racemic) [Example 164, 6-[5-[2-[(rac-1,2-trans-1-amino-4-fluoro-2,3-dihydro-1H-inden-2-yl)methylamino]ethyl]-2-oxo-1,3-oxazolidin-3-yl]-4H-pyrazino[2,3-b][1,4]oxazin-3-one; formic acid]: the half-inhibitory concentration (IC50) is < 0.0977 µM.

`N#Cc1cccc2c1CC(CNCCC1CN(c3ccc4c(n3)NC(=O)CO4)C(=O)O1)C2N` (racemic) [Example 228, rac-1,2-trans-1-Amino-2-[[2-[2-oxo-3-(3-oxo-4H-pyrido[3,2-b][1,4]oxazin-6-yl)-1,3-oxazolidin-5-yl]ethylamino]methyl]-2,3-dihydro-1H-indene-4-carbonitrile]: the IC50 turned out to be 0.174 µM.

Consider `Cc1ncc2c(c1F)CC(CNCC[C@H]1CN(c3cnc4c(n3)NC(=O)CO4)C(=O)O1)C2` (stereo partly drawn) [Example 338, 6-[(5S)-5-[2-[(4-fluoro-3-methyl-6,7-dihydro-5H-cyclopenta[c]pyridin-6-yl)methylamino]ethyl]-2-oxo-1,3-oxazolidin-3-yl]-4H-pyrazino[2,3-b][1,4]oxazin-3-one], for which the 50% inhibitory concentration (IC50) was < 0.0977 µM.

With `CC(N)COc1cc(C#N)c2c(c1)CC(CNCCC1CN(c3ccc4c(n3)NC(=O)CO4)C(=O)O1)C2` (stereo not shown) [Example 192, 6-(2-aminopropoxy)-2-[[2-[2-oxo-3-(3-oxo-4H-pyrido[3,2-b][1,4]oxazin-6-yl)-1,3-oxazolidin-5-yl]ethylamino]methyl]-2,3-dihydro-1H-inclene-4-carbonitrile; 2,2,2-trifluoroacetic acid], the half-inhibitory concentration (IC50) was < 0.0977 µM.

With `CNC(=O)COc1ccc2c(c1C#N)CC(CNCCC1CN(c3cnc4c(n3)NC(=O)CO4)C(=O)O1)C2` (stereo not shown) [Example 286, 2-[[4-cyano-2-[[2-[2-oxo-3-(3-oxo-4H-pyrazino[2,3-b][1,4]oxazin-6-yl)-1,3-oxazolidin-5-yl]ethylamino]methyl]-2,3-dihydro-1H-inden-5-yl]oxy]-N-methylacetamide], the half-inhibitory concentration (IC50) is < 0.0977 µM.

As for `CNC(=O)COc1nc(C#N)c2c(c1C)CC(CNCCC1CN(c3ccc4c(n3)NC(=O)CO4)C(=O)O1)C2` (stereo not shown) [Example 221, 2-((1-Cyano-4-methyl-6-(((2-(2-oxo-3-(3-oxo-3,4-dihydro-2H-pyrido[3,2-b][1,4]oxazin-6-yl)oxazolidin-5-yl)ethyl)amino)methyl)-6,7-dihydro-5H-cyclopenta[c]pyridin-3-yl)oxy)-N-methylacetamide], the concentration for half-maximal inhibition (IC50) stood at 0.302 µM.

Consider `N#Cc1cccc2c1C(O)C(CNCCC1CN(c3ccc4c(n3)NC(=O)CO4)C(=O)O1)C2` (racemic) [Example 151, rac-2,3-trans-3-hydroxy-2-[[2-[2-oxo-3-(3-oxo-4H-pyrido[3,2-b][1,4]oxazin-6-yl)-1,3-oxazolidin-5-yl]ethylamino]methyl]-2,3-dihydro-1H-indene-4-carbonitrile; formic acid], for which the 50% inhibitory concentration (IC50) came to 0.14 µM.

For `NC1c2cccc(Cl)c2CC1CN[C@H]1C[C@@]2(CN(c3ccc4c(n3)NC(=O)CO4)C(=O)O2)C1` (mixture of isomers) [Example 211, 2,4-trans-6-[6-oxo-2-[[rac-1,2-trans-1-amino-4-chloro-2,3-dihydro-1H-inden-2-yl]methylamino]-5-oxa-7-azaspiro[3.4]octan-7-yl]-4H-pyrido[3,2-b][1,4]oxazin-3-one], the half-maximal inhibitory concentration (IC50) was < 0.0977 µM.

Turning to `Cc1nc(C)c2c(c1C)CC(CNCCC1CN(c3cnc4c(n3)NC(=O)CO4)C(=O)O1)C2` (stereo not shown) [Example 269, 6-[2-Oxo-5-[2-[(1,3,4-trimethyl-6,7-dihydro-5H-cyclopenta[c]pyridin-6-yl)methylamino]ethyl]-1,3-oxazolidin-3-yl]-4H-pyrazino[2,3-b][1,4]oxazin-3-one], the IC50 is < 0.0977 µM.

`CNc1cc2c(c(C)n1)CC(CNCCC1CN(c3ccc4c(n3)NC(=O)CO4)C(=O)O1)C2` (stereo not shown) [Example 420, 6-[5-[2-[[1-Methyl-3-(methylamino)-6,7-dihydro-5H-cyclopenta[c]pyridin-6-yl]methylamino]ethyl]-2-oxo-1,3-oxazolidin-3-yl]-4H-pyrido[3,2-b][1,4]oxazin-3-one]: the half-inhibitory concentration (IC50) stood at 0.196 µM.

Regarding `Cc1nc(OC[C@@H]2CCN2)c(C)c2c1CC(CNCCC1CN(c3ccc4c(n3)NC(=O)CO4)C(=O)O1)C2` (stereo partly drawn) [Example 200, 6-[5-[2-[[3-[[(2S)-azetidin-2-yl]methoxy]-1,4-dimethyl-6,7-dihydro-5H-cyclopenta[c]pyridin-6-yl]methylamino]ethyl]-2-oxo-1,3-oxazolidin-3-yl]-4H-pyrido[3,2-b][1,4]oxazin-3-one], the IC50 is 0.32 µM.

Consider `N#Cc1cccc2c1CC(N1CCC(C3CN(c4cnc5c(n4)NC(=O)CO5)C(=O)O3)CC1)C2` (stereo not shown) [Example 349, 2-[4-[2-oxo-3-(3-oxo-4H-pyrazino[2,3-b][1,4]oxazin-6-yl)-1,3-oxazolidin-5-yl]piperidin-1-yl]-2,3-dihydro-1H-indene-4-carbonitrile], for which the half-maximal inhibitory concentration (IC50) was < 0.0977 µM.

For the compound `O=C1COc2ccc(N3CC(CCNC4Cc5cccc(Cl)c5C4)OC3=O)nc2N1` (stereo not shown) [Example 3, 6-[5-[2-[(4-chloro-2,3-dihydro-1H-inden-2-yl)amino]ethyl]-2-oxo-1,3-oxazolidin-3-yl]-4H-pyrido[3,2-b][1,4]oxazin-3-one hydrochloride], the IC50 stood at 0.94 µM.

Turning to `CNC(=O)COc1nc(C)c2c(c1C)CC(CNCCC1CN(c3ccc4c(n3)NC(=O)CO4)C(=O)O1)C2` (stereo not shown) [Example 110, 2-[[1,4-dimethyl-6-[[2-[2-oxo-3-(3-oxo-4H-pyrido[3,2-b][1,4]oxazin-6-yl)-1,3-oxazolidin-5-yl]ethylamino]methyl]-6,7-dihydro-5H-cyclopenta[c]pyridin-3-yl]oxy]-N-methylacetamide], the IC50 stood at 0.311 µM.

For the compound `N#Cc1cccc2c1CC(CNCCC1CN(c3ccc4c(n3)NC(=O)CO4)C(=O)O1)C2O` (racemic) [Example 139, rac-1,2-trans-1-hydroxy-2-[[2-[2-oxo-3-(3-oxo-4H-pyrido[3,2-b][1,4]oxazin-6-yl)-1,3-oxazolidin-5-yl]ethylamino]methyl]-2,3-dihydro-1H-indene-4-carbonitrile], the IC50 was 0.513 µM.

As to `Cc1nc(OCC2(N)CC2)c(C)c2c1CC(CNCCC1CN(c3ccc4c(n3)NC(=O)CO4)C(=O)O1)C2` (stereo not shown) [Example 172, 6-[5-[2-[[3-[(1-aminocyclopropyl)methoxy]-1,4-dimethyl-6,7-dihydro-5H-cyclopenta[c]pyridin-6-yl]methylamino]ethyl]-2-oxo-1,3-oxazolidin-3-yl]-4H-pyrido[3,2-b][1,4]oxazin-3-one], the half-inhibitory concentration (IC50) is < 0.0977 µM.

Consider `Cc1c(OC[C@H](N)CO)nc(C#N)c2c1CC(CNCCC1CN(c3ccc4c(n3)NC(=O)CO4)C(=O)O1)C2` (stereo partly drawn) [Example 235, 3-[(2R)-2-Amino-3-hydroxypropoxy]-4-methyl-6-[[2-[2-oxo-3-(3-oxo-4H-pyrido[3,2-b][1,4]oxazin-6-yl)-1,3-oxazolidin-5-yl]ethylamino]methyl]-6,7-dihydro-5H-cyclopenta[c]pyridine-1-carbonitrile], for which the half-inhibitory concentration (IC50) stood at 0.196 µM.

For `O=C1COc2ccc(N3CC(CNCC4Cc5cccc(Cl)c5C4)OC3=O)nc2N1` (stereo not shown) [Example 21, 6-[5-[[(4-chloro-2,3-dihydro-1H-inden-2-yl)methylamino]methyl]-2-oxo-1,3-oxazolidin-3-yl]-4H-pyrido[3,2-b][1,4]oxazin-3-one; formic acid], the IC50 is 0.453 µM.

With `CN(CCOc1cc(F)c2c(c1)CC(CNCCC1CN(c3cnc4c(n3)NC(=O)CO4)C(=O)O1)C2)S(C)(=O)=O` (stereo not shown) [Example 325, N-[2-[[7-fluoro-2-[[2-[2-oxo-3-(3-oxo-4H-pyrazino[2,3-b][1,4]oxazin-6-yl)-1,3-oxazolidin-5-yl]ethylamino]methyl]-2,3-dihydro-1H-inden-5-yl]oxy]ethyl]-N-methylmethanesulfonamide], the concentration for half-maximal inhibition (IC50) came to 0.281 µM.

As for `Cc1nnc(C)c2c1CC(CNCCC1CN(c3ccc4c(n3)NC(=O)CS4)C(=O)O1)C2` (stereo not shown) [Example 285, 5-[2-[(1,4-dimethyl-6,7-dihydro-5H-cyclopenta[d]pyridazin-6-yl)methylamino]ethyl]-3-(3-oxo-4H-pyrido[3,2-b][1,4]thiazin-6-yl)-1,3-oxazolidin-2-one], the concentration for half-maximal inhibition (IC50) worked out at 0.925 µM.

On to `Cc1nnc(C)c2c1CC(CNCCC1CN(c3ccc4c(n3)NC(=O)CO4)C(=O)O1)C2` (stereo not shown) [Example 284, 6-[5-[2-[(1,4-dimethyl-6,7-dihydro-5H-cyclopenta[d]pyridazin-6-yl)methylamino]ethyl]-2-oxo-1,3-oxazolidin-3-yl]-4H-pyrido[3,2-b][1,4]oxazin-3-one], for which the half-maximal inhibitory concentration (IC50) turned out to be 1.27 µM.

As for `O=C1COc2ncc(N3CC(CCNCC4Cc5cc(OCCn6ccnn6)cc(F)c5C4)OC3=O)nc2N1` (stereo not shown) [Example 344, 6-[5-[2-[[4-fluoro-6-[2-(triazol-1-yl)ethoxy]-2,3-dihydro-1H-inden-2-yl]methylamino]ethyl]-2-oxo-1,3-oxazolidin-3-yl]-4H-pyrazino[2,3-b][1,4]oxazin-3-one; formic acid], the half-maximal inhibitory concentration (IC50) worked out at 0.202 µM.

Consider `Cc1nc(OCCNC2CC2)c(C)c2c1CC(CNCCC1CN(c3ccc4c(n3)NC(=O)CO4)C(=O)O1)C2` (stereo not shown) [Example 189, 6-[5-[2-[[3-[2-(cyclopropylamino)ethoxy]-1,4-dimethyl-6,7-dihydro-5H-cyclopenta[c]pyridin-6-yl]methylamino]ethyl]-2-oxo-1,3-oxazolidin-3-yl]-4H-pyrido[3,2-b][1,4]oxazin-3-one], for which the IC50 amounted to 0.0995 µM.

Consider `CS(=O)(=O)NCCOc1cc(F)c2c(c1)CC(CNCCC1CN(c3cnc4c(n3)NC(=O)CO4)C(=O)O1)C2` (stereo not shown) [Example 324, N-[2-[[7-fluoro-2-[[2-[2-oxo-3-(3-oxo-4H-pyrazino[2,3-b][1,4]oxazin-6-yl)-1,3-oxazolidin-5-yl]ethylamino]methyl]-2,3-dihydro-1H-inden-5-yl]oxy]ethyl]methanesulfonamide], for which the IC50 was determined as 0.205 µM.

Usually IC50 stands for the concentration needed to halve the response being measured.
